Source: ChEMBL document CHEMBL5523713, “Development of novel N-aryl-2,4-bithiazole-2-amine-based CYP1B1 degraders for reversing drug resistance” (Eur J Med Chem, 2024)
Calls of active or inactive are those of the source. The rule behind the calls is not given here.

Columns and labels:
[1] = system: A549/TR; assay: Inhibition of epithelial-to-mesenchymal transition in human A549/Taxol cells assessed as reduction in CYP1B1 expression at 0.1 to 10 nM incubated for 24 hrs by immunoblot analysis; assay type: functional, cell-based; conditions: dose 0.1-10 nM
[2] = system: A549/TR; assay: Inhibition of cell migration in human A549/Taxol cells at 0.1 to 10 nM incubated for 48 hrs by wound healing assay; assay type: functional, cell-based; conditions: dose 0.1-10 nM
[3] = system: A549/TR; assay: Effect on paxillin protein level in human A549/Taxol cells at 0.1 to 10 nM incubated for 24 hrs by Western blotting analysis; assay type: functional, cell-based; conditions: dose 0.1-10 nM
[4] = target: Protein cereblon/Cytochrome P450 1B1 (Homo sapiens, UniProt Q16678+Q96SW2); assay: PROTAC activity at CRBN/CYP1B1 in human A549/Taxol cells assessed as degradation by measuring fold change in remaining CYP1B1 level incubated for 24 hrs by Western blotting analysis (reference value: 1); assay type: ADME, cell-based
Sequence of Protein cereblon/Cytochrome P450 1B1 (Q96SW2 whole entry, one chain of several): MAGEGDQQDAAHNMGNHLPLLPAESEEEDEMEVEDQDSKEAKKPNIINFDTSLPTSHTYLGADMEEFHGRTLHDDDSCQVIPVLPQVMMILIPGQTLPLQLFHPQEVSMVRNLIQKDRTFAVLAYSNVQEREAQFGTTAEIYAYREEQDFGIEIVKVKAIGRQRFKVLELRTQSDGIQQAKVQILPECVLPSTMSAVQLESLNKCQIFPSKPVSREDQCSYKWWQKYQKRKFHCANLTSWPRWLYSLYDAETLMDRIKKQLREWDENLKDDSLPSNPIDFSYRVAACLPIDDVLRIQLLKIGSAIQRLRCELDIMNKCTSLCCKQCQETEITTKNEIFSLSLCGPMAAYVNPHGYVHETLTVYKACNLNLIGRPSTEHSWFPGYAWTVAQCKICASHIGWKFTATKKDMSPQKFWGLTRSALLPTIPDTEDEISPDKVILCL

[5] = target: T1, Cytochrome P450 1A2 (Homo sapiens, UniProt P05177); assay: Inhibition of recombinant human CYP1A2 using 7-ethyl-O-resorufin as substrate incubated for 30 mins in presence of NADPH by EROD assay; assay type: ADME
T1 sequence (P05177 whole entry): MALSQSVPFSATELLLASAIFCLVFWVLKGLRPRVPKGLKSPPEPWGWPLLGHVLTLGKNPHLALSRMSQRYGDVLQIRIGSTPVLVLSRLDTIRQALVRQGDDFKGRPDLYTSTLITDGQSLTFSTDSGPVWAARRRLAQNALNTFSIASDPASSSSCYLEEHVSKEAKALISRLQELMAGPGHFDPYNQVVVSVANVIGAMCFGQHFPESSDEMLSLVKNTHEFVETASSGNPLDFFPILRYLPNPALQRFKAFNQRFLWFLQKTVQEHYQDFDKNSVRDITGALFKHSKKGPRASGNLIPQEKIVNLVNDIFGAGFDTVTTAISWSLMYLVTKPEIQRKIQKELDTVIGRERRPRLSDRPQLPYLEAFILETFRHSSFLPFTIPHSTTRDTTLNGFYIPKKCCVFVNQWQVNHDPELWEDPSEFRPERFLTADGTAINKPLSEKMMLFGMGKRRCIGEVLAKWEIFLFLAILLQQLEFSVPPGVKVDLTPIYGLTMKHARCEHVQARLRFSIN

[6] = system: A549/TR; assay: Reversal of taxol resistance in human A549/Taxol cells assessed as decrease in cell viability at 0.1 to 10 nM incubated for 48 to 72 hrs by MTT assay; assay type: functional, cell-based; conditions: dose 0.1-10 nM, time 48-72 hrs
[7] = target: T2, von Hippel-Lindau disease tumor suppressor/Cytochrome P450 1B1 (Homo sapiens, UniProt Q16678+P40337); assay: PROTAC activity at VHL/CYP1B1 in human A549/Taxol cells assessed as reduction in CYP1B1 level at 100 nM incubated for 24 hrs by Western blotting analysis; assay type: ADME, cell-based; conditions: 0.1 µM
T2 sequence (P40337 whole entry, one chain of several): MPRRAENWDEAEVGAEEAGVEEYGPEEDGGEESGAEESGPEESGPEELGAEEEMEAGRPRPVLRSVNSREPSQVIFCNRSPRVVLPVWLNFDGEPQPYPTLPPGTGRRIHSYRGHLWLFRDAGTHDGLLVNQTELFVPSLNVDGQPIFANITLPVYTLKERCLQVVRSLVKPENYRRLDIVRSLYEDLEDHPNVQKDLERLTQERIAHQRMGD

[8] = target: T3, Cytochrome P450 1A1 (Homo sapiens, UniProt P04798); assay: Inhibition of recombinant human CYP1A1 using 7-ethyl-O-resorufin as substrate incubated for 30 mins in presence of NADPH by EROD assay; assay type: ADME
T3 sequence (P04798 whole entry): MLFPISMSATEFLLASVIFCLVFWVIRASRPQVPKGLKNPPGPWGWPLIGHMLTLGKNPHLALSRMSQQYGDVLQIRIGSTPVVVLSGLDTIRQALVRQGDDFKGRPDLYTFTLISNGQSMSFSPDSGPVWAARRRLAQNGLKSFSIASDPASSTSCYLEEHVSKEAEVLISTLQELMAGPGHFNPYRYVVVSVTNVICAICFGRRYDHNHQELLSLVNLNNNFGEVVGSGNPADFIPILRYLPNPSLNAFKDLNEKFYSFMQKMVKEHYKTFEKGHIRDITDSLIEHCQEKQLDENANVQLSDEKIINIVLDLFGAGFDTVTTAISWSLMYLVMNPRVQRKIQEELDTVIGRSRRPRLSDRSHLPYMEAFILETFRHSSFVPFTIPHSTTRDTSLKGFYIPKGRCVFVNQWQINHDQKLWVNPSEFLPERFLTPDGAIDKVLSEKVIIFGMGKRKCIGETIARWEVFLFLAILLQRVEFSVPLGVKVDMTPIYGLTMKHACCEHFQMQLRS

[9] = target: T2, von Hippel-Lindau disease tumor suppressor/Cytochrome P450 1B1; assay: PROTAC activity at VHL/CYP1B1 in human A549/Taxol cells assessed as degradation by measuring fold change in remaining CYP1B1 level incubated for 24 hrs by Western blotting analysis (reference value: 1); assay type: ADME, cell-based
[10] = system: A549/TR; assay: Downregulation of P-glycoprotein expression in human A549/Taxol cells at 0.1 to 10 nM by Western blotting analysis; assay type: functional, cell-based; conditions: dose 0.1-10 nM
[11] = target: Proto-oncogene tyrosine-protein kinase Src (Homo sapiens) (UniProt P12931); assay: Inhibition of SRC phosphorylation in human A549/Taxol cells at 0.1 to 10 nM incubated for 24 hrs by Western blotting analysis; assay type: cell-based; conditions: dose 0.1-10 nM
Sequence of Proto-oncogene tyrosine-protein kinase Src (Homo sapiens) (P12931 2-536 limits assumed): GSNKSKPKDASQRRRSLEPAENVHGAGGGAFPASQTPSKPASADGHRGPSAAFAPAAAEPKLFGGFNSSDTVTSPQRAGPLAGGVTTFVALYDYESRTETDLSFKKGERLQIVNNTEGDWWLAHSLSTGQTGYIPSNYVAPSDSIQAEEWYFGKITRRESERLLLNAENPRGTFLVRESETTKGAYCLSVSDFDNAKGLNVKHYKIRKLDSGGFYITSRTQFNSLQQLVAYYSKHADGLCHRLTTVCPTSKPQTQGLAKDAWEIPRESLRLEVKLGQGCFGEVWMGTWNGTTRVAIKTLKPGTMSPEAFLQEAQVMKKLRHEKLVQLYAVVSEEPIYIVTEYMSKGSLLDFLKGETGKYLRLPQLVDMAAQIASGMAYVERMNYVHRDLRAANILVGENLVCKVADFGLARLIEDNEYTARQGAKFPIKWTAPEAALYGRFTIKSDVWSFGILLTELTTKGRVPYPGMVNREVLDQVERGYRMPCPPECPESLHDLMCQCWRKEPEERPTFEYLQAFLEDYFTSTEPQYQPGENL

[12] = target: T2, von Hippel-Lindau disease tumor suppressor/Cytochrome P450 1B1; assay: PROTAC activity at VHL/CYP1B1 in human A549/Taxol cells assessed as reduction in CYP1B1 level by Western blotting analysis; assay type: ADME, cell-based
[13] = target: T4, Cytochrome P450 1B1 (Homo sapiens, UniProt Q16678); assay: Inhibition of recombinant human CYP1B1 using 7-ethyl-O-resorufin as substrate incubated for 30 mins in presence of NADPH by EROD assay; assay type: ADME
T4 sequence (Q16678 whole entry): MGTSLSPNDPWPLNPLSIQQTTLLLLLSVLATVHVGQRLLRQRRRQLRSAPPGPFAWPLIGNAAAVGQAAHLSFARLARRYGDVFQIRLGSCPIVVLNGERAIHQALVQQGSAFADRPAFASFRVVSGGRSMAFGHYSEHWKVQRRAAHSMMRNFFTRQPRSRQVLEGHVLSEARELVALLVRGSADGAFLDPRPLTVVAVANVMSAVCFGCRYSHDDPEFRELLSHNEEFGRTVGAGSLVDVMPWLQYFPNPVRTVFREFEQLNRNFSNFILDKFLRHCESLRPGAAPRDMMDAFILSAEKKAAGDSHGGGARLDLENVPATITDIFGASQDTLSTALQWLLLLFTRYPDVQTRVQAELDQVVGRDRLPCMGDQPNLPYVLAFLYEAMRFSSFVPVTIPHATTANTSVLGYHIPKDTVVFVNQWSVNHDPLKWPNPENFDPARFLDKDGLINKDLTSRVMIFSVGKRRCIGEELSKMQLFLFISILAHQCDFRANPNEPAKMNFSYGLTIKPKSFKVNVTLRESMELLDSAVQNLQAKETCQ

[14] = system: A549/TR; assay: Inhibition of cell invasion in human A549/Taxol cells at 0.1 to 10 nM incubated for 24 hrs by crystal violet staining based transwell assay; assay type: functional; conditions: dose 0.1-10 nM
[15] = target: T2, von Hippel-Lindau disease tumor suppressor/Cytochrome P450 1B1; assay: PROTAC activity at VHL/CYP1B1 in human A549/Taxol cells assessed as reduction in CYP1B1 level at 10 nM incubated for 1 hr by Western blotting analysis; assay type: ADME, cell-based; conditions: 0.01 µM
[16] = system: A549/TR; assay: Inhibition of cell migration in human A549/Taxol cells incubated for 48 hrs by wound healing assay; assay type: functional, cell-based; conditions: dose 0.1-10 nM
[17] = target: T2, von Hippel-Lindau disease tumor suppressor/Cytochrome P450 1B1; assay: PROTAC activity at VHL/CYP1B1 in human A549/Taxol cells assessed as degradation by measuring fold change in remaining CYP1B1 level at 1 nM incubated for 24 hrs by Western blotting analysis (reference value: 1); assay type: ADME, cell-based; conditions: 0.001 µM
[18] = target: Focal adhesion kinase 1 (Homo sapiens) (UniProt Q05397); assay: Inhibition of FAK phosphorylation in human A549/Taxol cells at 0.1 to 10 nM incubated for 24 hrs by Western blotting analysis; assay type: cell-based; conditions: dose 0.1-10 nM
Sequence of Focal adhesion kinase 1 (Homo sapiens) (Q05397 2-1052 limits assumed): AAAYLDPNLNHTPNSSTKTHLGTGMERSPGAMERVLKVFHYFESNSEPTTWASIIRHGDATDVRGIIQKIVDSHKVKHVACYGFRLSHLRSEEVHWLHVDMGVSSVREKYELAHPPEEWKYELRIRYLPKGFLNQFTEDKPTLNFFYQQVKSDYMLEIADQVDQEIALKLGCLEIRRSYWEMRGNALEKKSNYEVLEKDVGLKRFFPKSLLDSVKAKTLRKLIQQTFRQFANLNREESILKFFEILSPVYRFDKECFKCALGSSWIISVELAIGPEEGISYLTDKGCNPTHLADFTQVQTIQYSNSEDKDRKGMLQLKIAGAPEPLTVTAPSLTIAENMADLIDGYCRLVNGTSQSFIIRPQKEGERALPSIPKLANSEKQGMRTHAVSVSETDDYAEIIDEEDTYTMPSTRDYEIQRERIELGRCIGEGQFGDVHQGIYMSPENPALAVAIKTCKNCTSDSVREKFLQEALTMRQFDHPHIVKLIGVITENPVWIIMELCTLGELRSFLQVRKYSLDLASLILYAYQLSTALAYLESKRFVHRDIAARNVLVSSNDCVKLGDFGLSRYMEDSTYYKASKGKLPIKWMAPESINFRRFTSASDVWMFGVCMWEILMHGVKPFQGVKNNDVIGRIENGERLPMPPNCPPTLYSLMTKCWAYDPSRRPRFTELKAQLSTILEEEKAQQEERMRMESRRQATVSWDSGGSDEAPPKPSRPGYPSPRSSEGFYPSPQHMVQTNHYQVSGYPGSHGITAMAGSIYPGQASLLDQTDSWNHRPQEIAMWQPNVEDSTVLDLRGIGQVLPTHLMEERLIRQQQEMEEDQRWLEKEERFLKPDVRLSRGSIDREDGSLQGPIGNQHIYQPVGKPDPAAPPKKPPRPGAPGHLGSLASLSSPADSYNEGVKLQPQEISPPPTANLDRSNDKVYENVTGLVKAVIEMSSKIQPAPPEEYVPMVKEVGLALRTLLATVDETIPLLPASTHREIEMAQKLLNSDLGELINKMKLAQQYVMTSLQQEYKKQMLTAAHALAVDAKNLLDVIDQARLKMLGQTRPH

[19] = target: T2, von Hippel-Lindau disease tumor suppressor/Cytochrome P450 1B1; assay: PROTAC activity at VHL/CYP1B1 in human A549/Taxol cells assessed as reduction in CYP1B1 level at 1000 nM incubated for 24 hrs by Western blotting analysis; assay type: ADME, cell-based; design: scale not given: the % may be the effect or the level left; conditions: 1 µM
[20] = system: A549/TR; assay: Inhibition of epithelial-to-mesenchymal transition in human A549/Taxol cells assessed as upregulation of E-cadherin protein expression at 0.1 to 10 nM incubated for 24 hrs by immunoblot analysis; assay type: functional, cell-based; conditions: dose 0.1-10 nM
[21] = system: A549/TR; assay: Effect on total FAK protein level in human A549/Taxol cells at 0.1 to 10 nM incubated for 24 hrs by Western blotting analysis; assay type: functional, cell-based; conditions: dose 0.1-10 nM
[22] = target: T2, von Hippel-Lindau disease tumor suppressor/Cytochrome P450 1B1; assay: PROTAC activity at VHL/CYP1B1 in human A549/Taxol cells assessed as reduction in CYP1B1 level at 10 nM incubated for 24 hrs by Western blotting analysis; assay type: ADME, cell-based; design: scale not given: the % may be the effect or the level left; conditions: 0.01 µM
[23] = system: A549/TR; assay: Reversal of taxol resistance in human A549/Taxol cells assessed as decrease in cell viability at 1 to 10 nM incubated for 48 to 72 hrs by MTT assay; assay type: functional, cell-based; conditions: dose 1-10 nM, time 48-72 hrs
[24] = target: T2, von Hippel-Lindau disease tumor suppressor/Cytochrome P450 1B1; assay: PROTAC activity at VHL/CYP1B1 in human A549/Taxol cells assessed as reduction in CYP1B1 level incubated for 24 hrs by Western blotting analysis; assay type: ADME, cell-based
[25] = target: T2, von Hippel-Lindau disease tumor suppressor/Cytochrome P450 1B1; assay: PROTAC activity at VHL/CYP1B1 in human A549/Taxol cells assessed as degradation by measuring fold change in remaining CYP1B1 level at 1000 nM incubated for 24 hrs by Western blotting analysis (reference value: 1); assay type: ADME, cell-based; conditions: 1 µM
[26] = system: A549/TR; assay: Inhibition of epithelial-to-mesenchymal transition in human A549/Taxol cells assessed as downregulation of N-cadherin protein expression at 0.1 to 10 nM incubated for 24 hrs by immunoblot analysis; assay type: functional, cell-based; conditions: dose 0.1-10 nM
[27] = system: A549/TR; assay: Reversal of taxol resistance in human A549/Taxol cells assessed as decrease in cell viability at 0.1 nM incubated for 48 to 72 hrs by MTT assay; assay type: functional, cell-based; conditions: time 48-72 hrs
[28] = target: T2, von Hippel-Lindau disease tumor suppressor/Cytochrome P450 1B1; assay: PROTAC activity at VHL/CYP1B1 in human A549/Taxol cells assessed as reduction in CYP1B1 level at 1 nM incubated for 24 hrs by Western blotting analysis; assay type: ADME, cell-based; design: scale not given: the % may be the effect or the level left; conditions: 0.001 µM
[29] = system: A549/TR; assay: Effect on total SRC protein level in human A549/Taxol cells incubated for 24 hrs by Western blotting analysis; assay type: functional, cell-based; conditions: dose 0.1-10 nM
[30] = system: A549/TR; assay: Inhibition of epithelial-to-mesenchymal transition in human A549/Taxol cells assessed as downregulation of vimentin protein expression at 0.1 to 10 nM incubated for 24 hrs by immunoblot analysis; assay type: functional, cell-based; conditions: dose 0.1-10 nM
[31] = target: Proto-oncogene tyrosine-protein kinase Src (Homo sapiens) (UniProt P12931); assay: Inhibition of SRC phosphorylation in human A549/Taxol cells incubated for 24 hrs by Western blotting analysis; assay type: cell-based; conditions: dose 0.1-10 nM
[32] = target: von Hippel-Lindau disease tumor suppressor/Cytochrome P450 1A1 (Homo sapiens, UniProt P04798+P40337); assay: PROTAC activity at VHL/CYP1A1 (unknown origin); assay type: ADME, protein assay
Sequence of von Hippel-Lindau disease tumor suppressor/Cytochrome P450 1A1 (P40337 whole entry, one chain of several): as the sequence (P40337 whole entry, one chain of several) above

Clc1ccc(Nc2nc(-c3nc(-c4ccccc4)cs3)cs2)cc1
inhibition [1]: inactive | inhibition [2]: inactive | Activity [3]: Active | fold change (FC) [4]: 0.8 | IC50 [5]: 3.91 µM | Activity [6]: inactive | Activity [7]: Not Active | IC50 [8]: 0.279 µM | fold change (FC) [9]: 1 | Activity [10]: inactive | inhibition [11]: Active | Activity [12]: Not Active | IC50 [13]: 0.0119 µM

Cc1ncsc1-c1ccc([C@H](C)NC(=O)[C@@H]2C[C@@H](O)CN2C(=O)[C@@H](NC(=O)CCCCCCOc2ccccc2-c2csc(-c3csc(Nc4ccc(Cl)cc4)n3)n2)C(C)(C)C)cc1
inhibition [14]: Active | Activity [15]: Active | Activity [3]: Active | inhibition [16]: Dose-Dependent Effect | fold change (FC) [17]: 0.5 | inhibition [18]: Active | Activity [19]: 60% | inhibition [20]: Active | Activity [21]: inactive | Activity [22]: 80% | Activity [23]: Active | DC50 [24]: 0.0001 µM | fold change (FC) [25]: 0.6 | Activity [10]: Active | inhibition [26]: Active | Activity [27]: Active | Activity [28]: 50% | Activity [29]: Dose-Dependent Effect | inhibition (INH) ([13]; human, recombinant enzyme, 0.5 h, time 30 min): Active | inhibition [30]: Active | inhibition [31]: Active | Activity [32]: Not Active

Cc1ncsc1-c1ccc([C@H](C)NC(=O)[C@@H]2C[C@@H](O)CN2C(=O)[C@@H](NC(=O)CCCCCCCCCCOc2ccccc2-c2csc(-c3csc(Nc4ccc(Cl)cc4)n3)n2)C(C)(C)C)cc1
fold change (FC) [17]: 1.7 | fold change (FC) [25]: 1.8

Cc1ncsc1-c1ccc([C@H](C)NC(=O)[C@@H]2C[C@@H](O)CN2C(=O)[C@@H](NC(=O)CCCCCCCOc2ccccc2-c2csc(-c3csc(Nc4ccc(Cl)cc4)n3)n2)C(C)(C)C)cc1
fold change (FC) [17]: 0.4 | Activity [19]: > 70% | fold change (FC) [25]: 0.2 | Activity [28]: 60%
